Laboratory results from the NIST ThermoML archive (doi:10.1021/je900660x).

How the values were obtained:
[1] = for mass density / viscosity / thermal conductivity: 101.33 kPa, Liquid; for mass density: Vibrating tube method; for thermal conductivity: Hot wire method
[2] = molar heat capacity at constant pressure; conditions: 101.33 kPa, Liquid, Large sample (1 g) DSC

CCCC[N+](C)(CCCC)CCCC.N[C@@H](CO)C(=O)[O-] [N,N-dibutyl-N-methylbutanaminium L-serinate]
Conditions	Glass transition temperature, [1] [°C]	mass density, [1] [kg/m3]	molar heat capacity at constant pressure, [2] [J/K/mol]	thermal conductivity, [1] [W/m/K]	viscosity, [1] [mPa·s]
293.15 K	–	1018.8	632.4	–	–
298.15 K	–	1015.7	634.8	0.169	10214
303.15 K	–	1012.6	637.6	0.168	5845
313.15 K	–	1006.3	643.6	0.167	2160
323.15 K	–	999.9	651	0.166	890.7
333.15 K	–	993.9	658	0.165	410.3
343.15 K	–	987.9	665	0.164	207.9
353.15 K	–	981.9	672.9	0.163	111.8
363.15 K	–	975.6	680.8	–	64.3
DTA	-50.59	–	–	–	–

CCCC[P+](CCCC)(CCCC)CCCC.O=C([O-])[C@@H]1CCCN1 [tetrabutylphosphonium L-prolinate]
Conditions	Glass transition temperature, [1] [°C]	mass density, [1] [kg/m3]	molar heat capacity at constant pressure, [2] [J/K/mol]	thermal conductivity, [1] [W/m/K]	viscosity, [1] [mPa·s]
293.15 K	–	995.7	838	–	–
298.15 K	–	992.5	844.2	0.154	1695
303.15 K	–	989.1	850.4	0.153	1101
313.15 K	–	983	864.1	0.152	483.5
323.15 K	–	976.9	879.7	0.151	241.3
333.15 K	–	970.8	894.8	0.15	133.1
343.15 K	–	964.6	910.1	0.149	78.2
353.15 K	–	958.6	925.8	0.148	49.6
363.15 K	–	952.6	939.4	–	32.2
DTA	-65.87	–	–	–	–

CC(C)[C@H](N)C(=O)[O-].CCCC[P+](CCCC)(CCCC)CCCC [tetrabutylphosphonium L-valinate]
Conditions	Glass transition temperature, [1] [°C]	mass density, [1] [kg/m3]	molar heat capacity at constant pressure, [2] [J/K/mol]	thermal conductivity, [1] [W/m/K]	viscosity, [1] [mPa·s]
293.15 K	–	–	743.7	–	–
298.15 K	–	–	747.4	–	–
303.15 K	–	–	751.6	–	–
313.15 K	–	932.1	761.3	0.157	216.9
323.15 K	–	926	771.5	0.156	120
333.15 K	–	919.9	781.2	0.155	70.8
343.15 K	–	913.9	791.4	0.154	44.8
353.15 K	–	908	801.1	0.153	29.6
363.15 K	–	902.1	810.9	–	20.3
DTA	-65.56	–	–	–	–

Conditions	Normal melting temperature [°C]
[1], Crystal, DTA	25.77

CCCC[P+](CCCC)(CCCC)CCCC.N[C@@H](CO)C(=O)[O-] [tetrabutylphosphonium L-serinate]
Conditions	Glass transition temperature, [1] [°C]	mass density, [1] [kg/m3]	molar heat capacity at constant pressure, [2] [J/K/mol]	viscosity, [1] [mPa·s]
293.15 K	–	995.5	742	–
298.15 K	–	992.3	748.5	1143
303.15 K	–	989.2	755.1	778.4
313.15 K	–	983	765.6	395.4
323.15 K	–	976.9	776.5	209.4
333.15 K	–	970.8	787.4	122.9
343.15 K	–	964.8	797.6	77.6
353.15 K	–	958.9	807.8	49.7
363.15 K	–	953	814.7	34.1
DTA	-59.38	–	–	–

CCCC[P+](CCCC)(CCCC)CCCC.NCCCC[C@H](N)C(=O)[O-] [tetrabutylphosphonium L-lysinate]
Conditions	Glass transition temperature, [1] [°C]	mass density, [1] [kg/m3]	molar heat capacity at constant pressure, [2] [J/K/mol]	thermal conductivity, [1] [W/m/K]	viscosity, [1] [mPa·s]
293.15 K	–	970.5	987.3	–	–
298.15 K	–	967.5	997.4	0.163	741
303.15 K	–	964.4	1004.3	0.163	519.8
313.15 K	–	958.4	1021.3	0.162	268.7
323.15 K	–	952.3	1040.3	0.161	149.7
333.15 K	–	946.2	1060.1	0.16	90.4
343.15 K	–	940.3	1077.9	0.159	59.8
353.15 K	–	934.4	1096.5	0.158	39.7
363.15 K	–	928.6	1111.5	–	27.5
DTA	-66.7	–	–	–	–
